Experiments:
[1] = Solubility of ticagrelor in SBECD (appearance on shaking platform); type: physicochemical
Description: In a first example two different types of cyclodextrin were used and compared for the solubilization of ticagrelor. An unbuffered stock solution of HPβCD or SBECD was made in water at the target concentrations of 20 w/w %, 25 w/w %, 30 w/w %, 35 w/w % and 40 w/w %. Ticagrelor was added slowly under vortex. Ticagrelor was used at concentrations of 5, 10 or 14 mg/ml in milli Q water. The ticagrelor-cyclodextrin solutions were left on a shaking platform. No sonification or heat was applied.

[2] = Clear aqueous ticagrelor-cyclodextrin solutions considering 65 mg dose; type: physicochemical; conditions: using 20-40% w/w HPβCD
[3] = phosphate buffered solution pH 7.4, normal laboratory light and temperature; cited from earlier work
[4] = SBECD 20% w/w, ticagrelor 5 mg/ml
[5] = SBECD 20% w/w, ticagrelor 10 mg/ml
[6] = SBECD 20% w/w, ticagrelor 14 mg/ml
[7] = SBECD 25% w/w, ticagrelor 5 mg/ml
[8] = SBECD 25% w/w, ticagrelor 10 mg/ml
[9] = SBECD 25% w/w, ticagrelor 14 mg/ml
[10] = SBECD 30% w/w, ticagrelor 5 mg/ml
[11] = SBECD 30% w/w, ticagrelor 10 mg/ml
[12] = SBECD 30% w/w, ticagrelor 14 mg/ml
[13] = SBECD 35% w/w, ticagrelor 5 mg/ml
[14] = SBECD 35% w/w, ticagrelor 10 mg/ml
[15] = SBECD 35% w/w, ticagrelor 14 mg/ml
[16] = SBECD 40% w/w, ticagrelor 5 mg/ml
[17] = SBECD 40% w/w, ticagrelor 10 mg/ml
[18] = SBECD 40% w/w, ticagrelor 14 mg/ml

For CCCSc1nc(N[C@@H]2C[C@H]2c2ccc(F)c(F)c2)c2nnn([C@@H]3C[C@H](OCCO)[C@@H](O)[C@H]3O)c2n1 [Ticagrelor, (1S,2S,3R,5S)-3-{7-[(1R,2S)-2-(3,4-difluorophenyl)cyclopropylamino]5-(propylthio)-3H-(1,2,3)triazolo (4,5-D)pyrimidin-3-yl}-5-(2 hydroxyethoxy)cyclopentane-1,2-diol], the “Appearance After 5 min of shaking” value [1, 4] was “− (translucent solution with precipitation)”, the “Appearance After 30 min of shaking” value [1, 4] was “− (translucent solution with precipitation)” and the “Appearance After 60 min of shaking” value [1, 4] was “− (translucent solution with precipitation)”. For the same molecule, the “Appearance After 3 h of shaking” value [1, 4] was “− (translucent solution with precipitation)”, the “Appearance After overnight shaking” value [1, 4] was “− (translucent solution with precipitation)” and the “Appearance After 5 min of shaking” value [1, 5] was “− (translucent solution with precipitation)”. For the same molecule, the “Appearance After 30 min of shaking” value [1, 5] was “− (translucent solution with precipitation)”, the “Appearance After 60 min of shaking” value [1, 5] was “− (translucent solution with precipitation)” and the “Appearance After 3 h of shaking” value [1, 5] was “− (translucent solution with precipitation)”. The “Appearance After overnight shaking” value [1, 5] was “− (translucent solution with precipitation)”, the “Appearance After 5 min of shaking” value [1, 6] was “− (translucent solution with precipitation)” and the “Appearance After 30 min of shaking” value [1, 6] was “− (translucent solution with precipitation)”. For the same molecule, the “Appearance After 60 min of shaking” value [1, 6] was “− (translucent solution with precipitation)”, the “Appearance After 3 h of shaking” value [1, 6] was “− (translucent solution with precipitation)” and the “Appearance After overnight shaking” value [1, 6] was “− (translucent solution with precipitation)”. The “Appearance After 5 min of shaking” value [1, 7] was “− (translucent solution with precipitation)”, the “Appearance After 30 min of shaking” value [1, 7] was “− (translucent solution with precipitation)” and the “Appearance After 60 min of shaking” value [1, 7] was “− (translucent solution with precipitation)”. The “Appearance After 3 h of shaking” value [1, 7] was “− (translucent solution with precipitation)”, the “Appearance After overnight shaking” value [1, 7] was “− (translucent solution with precipitation)” and the “Appearance After 5 min of shaking” value [1, 8] was “− (translucent solution with precipitation)”. The “Appearance After 30 min of shaking” value [1, 8] was “− (translucent solution with precipitation)”, the “Appearance After 60 min of shaking” value [1, 8] was “− (translucent solution with precipitation)” and the “Appearance After 3 h of shaking” value [1, 8] was “− (translucent solution with precipitation)”. For the same molecule, the “Appearance After overnight shaking” value [1, 8] was “− (translucent solution with precipitation)”, the “Appearance After 5 min of shaking” value [1, 9] was “− (translucent solution with precipitation)” and the “Appearance After 30 min of shaking” value [1, 9] was “− (translucent solution with precipitation)”. The “Appearance After 60 min of shaking” value [1, 9] was “− (translucent solution with precipitation)”, the “Appearance After 3 h of shaking” value [1, 9] was “− (translucent solution with precipitation)” and the “Appearance After overnight shaking” value [1, 9] was “− (translucent solution with precipitation)”. The “Appearance After 5 min of shaking” value [1, 10] was “− (translucent solution with precipitation)”, the “Appearance After 30 min of shaking” value [1, 10] was “− (translucent solution with precipitation)” and the “Appearance After 60 min of shaking” value [1, 10] was “− (translucent solution with precipitation)”. For the same molecule, the “Appearance After 3 h of shaking” value [1, 10] was “− (translucent solution with precipitation)”, the “Appearance After overnight shaking” value [1, 10] was “− (translucent solution with precipitation)” and the “Appearance After 5 min of shaking” value [1, 11] was “− (translucent solution with precipitation)”. The “Appearance After 30 min of shaking” value [1, 11] was “− (translucent solution with precipitation)”, the “Appearance After 60 min of shaking” value [1, 11] was “− (translucent solution with precipitation)” and the “Appearance After 3 h of shaking” value [1, 11] was “− (translucent solution with precipitation)”. For the same molecule, the “Appearance After overnight shaking” value [1, 11] was “− (translucent solution with precipitation)”, the “Appearance After 5 min of shaking” value [1, 12] was “− (translucent solution with precipitation)” and the “Appearance After 30 min of shaking” value [1, 12] was “− (translucent solution with precipitation)”. The “Appearance After 60 min of shaking” value [1, 12] was “− (translucent solution with precipitation)”, the “Appearance After 3 h of shaking” value [1, 12] was “− (translucent solution with precipitation)” and the “Appearance After overnight shaking” value [1, 12] was “− (translucent solution with precipitation)”. The “Appearance After 5 min of shaking” value [1, 13] was “− (translucent solution with precipitation)”, the “Appearance After 30 min of shaking” value [1, 13] was “+/−” and the “Appearance After 60 min of shaking” value [1, 13] was “+/−”. The “Appearance After 3 h of shaking” value [1, 13] was “+/−”, the “Appearance After overnight shaking” value [1, 13] was “− (translucent solution with precipitation)” and the “Appearance After 5 min of shaking” value [1, 14] was “− (translucent solution with precipitation)”. For the same molecule, the “Appearance After 30 min of shaking” value [1, 14] was “− (translucent solution with precipitation)”, the “Appearance After 60 min of shaking” value [1, 14] was “− (translucent solution with precipitation)” and the “Appearance After 3 h of shaking” value [1, 14] was “− (translucent solution with precipitation)”. For the same molecule, the “Appearance After overnight shaking” value [1, 14] was “− (translucent solution with precipitation)”, the “Appearance After 5 min of shaking” value [1, 15] was “− (translucent solution with precipitation)” and the “Appearance After 30 min of shaking” value [1, 15] was “− (translucent solution with precipitation)”. The “Appearance After 60 min of shaking” value [1, 15] was “− (translucent solution with precipitation)”, the “Appearance After 3 h of shaking” value [1, 15] was “− (translucent solution with precipitation)” and the “Appearance After overnight shaking” value [1, 15] was “− (translucent solution with precipitation)”. The “Appearance After 5 min of shaking” value [1, 16] was “− (translucent solution with precipitation)”, the “Appearance After 30 min of shaking” value [1, 16] was “+/−” and the “Appearance After 60 min of shaking” value [1, 16] was “+/−”. The “Appearance After 3 h of shaking” value [1, 16] was “+/−”, the “Appearance After overnight shaking” value [1, 16] was “+ (clear, appeared completely dissolved)” and the “Appearance After 5 min of shaking” value [1, 17] was “− (translucent solution with precipitation)”. The “Appearance After 30 min of shaking” value [1, 17] was “− (translucent solution with precipitation)”, the “Appearance After 60 min of shaking” value [1, 17] was “− (translucent solution with precipitation)” and the “Appearance After 3 h of shaking” value [1, 17] was “− (translucent solution with precipitation)”. For the same molecule, the “Appearance After overnight shaking” value [1, 17] was “− (translucent solution with precipitation)”, the “Appearance After 5 min of shaking” value [1, 18] was “− (translucent solution with precipitation)” and the “Appearance After 30 min of shaking” value [1, 18] was “− (translucent solution with precipitation)”. For the same molecule, the “Appearance After 60 min of shaking” value [1, 18] was “− (translucent solution with precipitation)”, the “Appearance After 3 h of shaking” value [1, 18] was “− (translucent solution with precipitation)” and the “Appearance After overnight shaking” value [1, 18] was “− (translucent solution with precipitation)”. For the same molecule, the “Ticagrelor solution concentration achieved” value [2] was 5 to 13 mg/mL and the “Ticagrelor concentration on storage” value [3] was “declined after 1 month”.
